Results reported in patent US20230131376A1, “ADJUVANT-ANTIBIOTIC COMBINATION AGAINST GRAM-NEGATIVE BACTERIA” (University of Notre Dame du Lac, priority 2020, published 2023).
Blank lines part the entries; values can stand above or below the molecule they belong to.

Tests used:
[1] = tested on: mcr-1 plasmid containing E. coli, K. pneumoniae, and A. baumannii; experiment: Colistin potentiation stated for all three mcr-1 strains together
[2] = tested on: several MDR Gram-negative bacterial strains; conditions: cited from earlier work
[3] = tested on: A. baumannii 3941; experiment: Colistin potentiation, chromosomally colistin resistant A. baumannii 3941; type: cell-based
Excerpt: (§1) Broth microdilution method for antibiotic potentiation.

[4] = tested on: K. pneumoniae C3; experiment: Colistin potentiation, chromosomally colistin resistant K. pneumoniae C3; type: cell-based
Excerpt: as §1

[5] = tested on: 4T1 cells; experiment: MTT cell viability assay; type: cell-based, mouse; conditions: 4T1 cells, 18 h, concentration giving 50% cell viability; for CT50, Compound + colistin: with 1 μg/mL colistin; for CT50, Compound alone: without colistin
Protocol: MTT Cell Viability Assay. 4T1 cells (ATCC Manassas, Va.) were plated at a density of 1×10^4 cells/well in 96-well plates. (Roswell Park Memorial Institute Media 1640, Gibco, Gaithersburg, Md.) supplemented with 10% Fetal Bovine Serum (Gibco), 2 mM GlutaMAX (Gibco) and 50 μM 2-mercaptoethanol (Sigma Aldrich St. Louis, Mo.) and incubated at 37° C. under a 5% CO2 atmosphere in the dark for 18 h. Cell cultures were treated with serial dilutions of compounds in the presence or absence of 1 μg/mL colistin (3 replicates per condition) and incubated for an additional 18 hours. The following control conditions were used: media only (blank), 1% Triton X100 (0% cell viability), 0.5% DMSO (100% cell viability). Each condition was then treated with 10% volume of a 5 mg/mL solution of 3-(4,5-dimethylthiazol-2-yl)-2,5-diphenyltetrazolium bromide (MTT) (Sigma Aldrich) in sterile filtered 1× phosphate buffered saline (PBS) and incubated for 2 h. at 37° C. in 5% CO2, after which the media was aspirated and the resulting formazan crystals were resuspended in 100 μL acidified (4 mM HCl) isopropanol. The 96-well plate was then read at 540 nm on a FLUOstar Optima (BMG Labtech Cary, N.C.) microplate reader. Cell viability was calculated as a percentage using the two previously mentioned controls.

[6] = tested on: A. baumannii 4106; experiment: Colistin potentiation, chromosomally colistin resistant A. baumannii 4106; type: cell-based
Excerpt: as §1

[7] = tested on: K. pneumoniae B9; experiment: Colistin potentiation, chromosomally colistin resistant K. pneumoniae B9; type: cell-based; conditions: K. pneumoniae B9
Excerpt: as §1

[8] = adjuvant at 15 μM, susceptibility breakpoint 2 μg/mL

Structure (SMILES): O=C(NCCc1c[nH]c2ccccc12)c1ccc(Cl)c(Cl)c1 [Compound 1d, N-(2-(1H-indol-3-yl)ethyl)-3,4-dichlorobenzamide]
colistin MIC with adjuvant, all three mcr-1 strains ([1]; adjuvant at 50 μM): 2 µg/mL | fold reduction of colistin MIC, all mcr-1 containing strains ([1]; adjuvant at 50 μM): 4-8 fold

Structure (SMILES): O=C(NCCc1c[nH]c2ccccc12)c1cc(Cl)c(Cl)[nH]1 [Compound 2]
ability to potentiate colistin activity [2]: demonstrated the ability to potentiate colistin activity

Structure (SMILES): CC(C)n1cc(-c2cccc(NC(=O)Nc3cc(Br)cc(Br)c3)c2)nc1N [Compound 3]
ability to potentiate colistin activity [2]: demonstrated the ability to potentiate colistin activity

Structure (SMILES): CCNc1nccc(-c2c[nH]c3ccc(Br)cc23)n1 [Compound 4]
ability to potentiate colistin activity [2]: demonstrated the ability to potentiate colistin activity

Structure (SMILES): O=C(NCCc1c[nH]c2ccccc12)Nc1cc(Br)cc(Br)c1 [Compound 8b, 1-(2-(1H-indol-3-yl)ethyl)-3-(3,5-dibromophenyl)urea]
colistin MIC with adjuvant ([3]; adjuvant at 10 μM): 16 µg/mL | colistin MIC with adjuvant ([3]; adjuvant at 15 μM): 8 µg/mL | colistin MIC with adjuvant ([3]; adjuvant at 20 μM): 8 µg/mL | colistin MIC with adjuvant ([4]; adjuvant at 10 μM): 8 µg/mL | colistin MIC with adjuvant ([4]; adjuvant at 15 μM): 4 µg/mL | colistin MIC with adjuvant ([4]; adjuvant at 20 μM): 2 µg/mL | colistin MIC with adjuvant, all three mcr-1 strains [1, 8]: lowered the colistin MIC to the susceptibility breakpoint | CT50, Compound + colistin [5]: 64.2 µM | CT50, Compound alone [5]: 86.2 µM | colistin MIC with adjuvant ([6]; adjuvant at 10 μM): 8 µg/mL | colistin MIC with adjuvant ([6]; adjuvant at 15 μM): 4 µg/mL | colistin MIC with adjuvant ([6]; adjuvant at 20 μM): 4 µg/mL | colistin MIC with adjuvant ([7]; adjuvant at 7.5 μM): 4 µg/mL | colistin MIC with adjuvant ([7]; adjuvant at 8 μM): 32 µg/mL | colistin MIC with adjuvant ([7]; adjuvant at 10 μM): 1 µg/mL | colistin MIC with adjuvant ([7]; adjuvant at 15 μM): 0.5 µg/mL

Structure (SMILES): O=C(NCCc1c[nH]c2ccccc12)Nc1cc(C(F)(F)F)cc(C(F)(F)F)c1 [Compound 8c, 1-(2-(1H-indol-3-yl)ethyl)-3-(3,5-bis(trifluoromethyl)phenyl)urea]
colistin MIC with adjuvant, all three mcr-1 strains [1, 8]: lowered the colistin MIC to the susceptibility breakpoint | CT50, Compound + colistin [5]: 61.8 µM | CT50, Compound alone [5]: 60.5 µM

Structure (SMILES): O=C(NCCc1c[nH]c2ccccc12)Nc1ccc(Cl)c(Cl)c1 [Compound 8d, 1-(2-(1H-indol-3-yl)ethyl)-3-(3,4-dichlorophenyl)urea]
CT50, Compound + colistin [5]: 104.8 µM | CT50, Compound alone [5]: 117.3 µM

Structure (SMILES): O=C(NCCc1c[nH]c2ccccc12)Nc1cc(Cl)c(Br)c(Cl)c1 [Compound 8e, 1-(2-(1H-indol-3-yl)ethyl)-3-(4-bromo-3,5-dichlorophenyl)urea]
colistin MIC with adjuvant, all three mcr-1 strains [1, 8]: lowered the colistin MIC to the susceptibility breakpoint

colistin MIC with adjuvant ([3]; adjuvant at 10 μM): 8 µg/mL | colistin MIC with adjuvant ([3]; adjuvant at 15 μM): 4 µg/mL | colistin MIC with adjuvant ([3]; adjuvant at 20 μM): 2 µg/mL | colistin MIC with adjuvant ([4]; adjuvant at 10 μM): 4 µg/mL | colistin MIC with adjuvant ([4]; adjuvant at 15 μM): 2 µg/mL | colistin MIC with adjuvant ([4]; adjuvant at 20 μM): 1 µg/mL | colistin MIC with adjuvant ([6]; adjuvant at 10 μM): 4 µg/mL | colistin MIC with adjuvant ([6]; adjuvant at 15 μM): 2 µg/mL | colistin MIC with adjuvant ([6]; adjuvant at 20 μM): 2 µg/mL | colistin MIC with adjuvant ([7]; adjuvant at 5 μM): 8 µg/mL | colistin MIC with adjuvant ([7]; adjuvant at 7.5 μM): 2 µg/mL | colistin MIC with adjuvant ([7]; adjuvant at 10 μM): 1 µg/mL | colistin MIC with adjuvant ([7]; adjuvant at 15 μM): 0.5 µg/mL
Structure (SMILES): O=C(NCCc1c[nH]c2ccc(Br)cc12)Nc1ccc(Cl)c(Cl)c1 [Compound 9d, 1-(2-(5-bromo-1H-indol-3-yl)ethyl)-3-(3,4-dichlorophenyl)urea]
CT50, Compound + colistin [5]: 84.6 µM | CT50, Compound alone [5]: 125.5 µM

Structure (SMILES): CC(C)n1cc(-c2cccc(NC(=O)Nc3cc(Cl)c(Br)c(Cl)c3)c2)nc1N [Compound 14, reference compound]
CT50, Compound + colistin [5]: 15.6 µM | CT50, Compound alone [5]: 23.2 µM
